Source: US20230173087A1, “ANTIBODY DRUG CONJUGATES WITH CLEAVABLE LINKERS” (Heidelberg Pharma Research GmbH, priority 2019, published 2023)

Columns and labels:
[1] = target: RNA polymerase II (Homo sapiens, UniProt P24928+P30876); conditions: read-out: KD of complex between amanitin and RNA polymerase II; cited from earlier work
[2] = test system: SKBR-3 (breast cancer) cells; experiment: Cytotoxicity, chemiluminescent BrdU-ELISA incorporation assay on SKBR-3 cells; assay type: cell-based; conditions: as antibody conjugate
Description: Cytotoxic activity of Trastuzumab (Anti-Her2neu-specific antibody)-amatoxin conjugates was evaluated in vitro on HER2-positive tumor cell lines SKBR-3 (breast cancer), NCI-N87 (gastric cancer), and JIMT-1 (breast cancer) using a chemiluminescent BrdU-ELISA incorporation assay (Roche).

For amanitin, which Kd [1] is on record?
Its Kd is 3 nM.

With `CC[C@H](C)[C@@H]1NC(=O)CNC(=O)C2Cc3c([nH]c4cc(O)ccc34)[S@+]([O-])CC(NC(=O)CNC1=O)C(=O)NC(CC(N)=O)C(=O)N1CC(O)CC1C(=O)N[C@@H]([C@@H](C)[C@@H]1COC(c3ccc(NC(=O)[C@H](C)NC(=O)C(NC(=O)CCN4C(=O)C=CC4=O)C(C)C)cc3)O1)C(=O)N2` (stereo partly drawn) [HDP 30.2684, α-Amanitin-(BMP-Val-Ala-4-amino-benzylidenacetal)] as the molecule, how does the “effectiveness in vitro compared to HDP 30.1699” value [2] read?
Its value is “as effective as HDP 30.1699”.
